Experimental findings from US9828344B2, “Inhibitors of the notch signaling pathway and secretion for use in medicine” (Leibniz-Institut für Altersforschung Fritz-Lipmann-Institut …, priority 2012, dated 2017) are described below.

The test system of assay [1] is ER. The experiment in a line: ER tubule-to-sheet live-cell imaging in COS cells (prlss-KDEL-mRFP). In kind it is cell-based. Particulars: 10 iM, 2 h. The method, then:
FIG. 7: FLI-06 induces ER sheet formation. A) COS cells transfected with prlss-KDEL-mRFP were incubated with 10 μM FLI-06 for indicated times and imaged by live-cell microscopy. The inserts are magnifications of the boxed areas. B) Images from cells treated as in A) were scored for the percentage of cells that lost most of their ER-tubules. For each time point 40-60 cells were counted. Data represent mean percentages, error bars SEM, n=3 independent experiments.
FIG. 16: Only ER exit inhibitors convert ER tubules to sheets. COS cells plated on LabTek chambered coverslips were transiently transfected with the ER-marker prlss-KDEL-mRFP, incubated the next day for 2 h with 10 iM of indicated compounds and imaged by live-cell microscopy. […] FLI-06+CHX, cells were additionally incubated in 40 iM cycloheximide. Nife, nifedipine; nimo, nimodipine. Numbers refer to numbering in FIG. 5a.
We noted a morphological change of the ER upon FLI-06 incubation that was difficult to capture in fixed cells. Live-cell imaging was therefore performed in COS cells transfected with the ER marker prlss-KDEL-mRFP (supp. Ref 3) and FLI-06 was added for 120 min (FIG. 7a). After 120 min almost all cells had no detectable ER-tubules anymore and instead were filled with large sheet-like structures. […] To test whether the morphological change is related to the inhibition of ER exit, next our set of FLI-06 derivatives was tested. […] Rather, the ER-sheets are indicative for structural changes, maybe initiated within ERES, that inhibit ER exit.

The subject of assay [2] is NotchΔE-EGFP. The experiment in a line: Western blot of NotchΔE-EGFP processing in HeLa NotchΔE-EGFP lysates. In kind it is cell-based. As to conditions: 10 μM, 18 h. As to the method:
FIG. 2: Selected compounds from final hit list show distinct phenotypes. Hela NotchΔE-EGFP cells were incubated with compounds (10 μM) for 18 h, fixed and analyzed by fluorescence microscopy (a) or lysed, separated by SDS-PAGE, blotted and probed with antibodies against GFP and NICD (b). Tubulin served as loading control. c) Quantitation of NotchΔE-EGFP accumulation and NICD production from 3-4 experiments as shown in (b). […] Arrows, plasma membrane; scalebar, 10 μm.
Next, lysates of HeLa NotchΔE-EGFP cells treated with compounds were analyzed for processing of NotchΔE-EGFP by Western blot using antibodies specific for EGFP and NICD (FIG. 2b, c). The GFP antibody detected both the uncleaved reporter NotchΔE-EGFP and the γ-secretase product NICD-EGFP, whereas the NICD-specific antibody specifically detected cleaved NICD-EGFP. […] The observed effects were not cell type specific, as they were also apparent in U2OS cells stably expressing NotchΔE-EGFP (FIG. 9).
(In general: In western blotting, separated proteins are transferred to a membrane and probed.)

The subject of assay [3] is zebrafish embryos. Description: Zebrafish embryo Notch phenotype (somites, ngn1 qPCR and ISH). In kind it is in vivo, zebrafish Danio rerio. As to conditions: 50 μM. The method, then: (§1) Cells were incubated with DAPT or 10 μM of the indicated compounds (50 μM in case of FLI-15 and -20) and after 16 h a luciferase assay was performed. […] Changes in relative gene expression levels (fold change) relative to the expression levels in DMSO controls are represented as the mean+/−SD, asterisks indicate p<0.01. Each measurement was taken from two independent samples. Each reaction was measured in triplicate. Changes in the relative expression of ngn1 were standardized to the expression of the housekeeping gene ef1a at 20 hpf. c) ISH with riboprobes specific for ngn1 was performed on dechorionated stage 4 hpf zebrafish embryos. Anterior is to the left, dorsal to the top. Magnifications of the somite region (small box) are shown. Arrows indicate larger ngn1 clusters or stronger ngn1 staining. s, sensory neurons; i, intermediate neurons; m, motor neurons.
FIG. 11: Selected compounds affect somite formation and neurogenesis in vivo in zebrafish embryos. a) Lateral view of typical representative phenotypes induced by DAPT treatment, which were used as a reference to score the effect of compounds. […] Images were taken at 24 hpf. b) Pie chart showing the cumulative relative frequency of the phenotypes in a) at 24 hpf in embryos treated with 20, 50 and 100 iM of the indicated compounds. c) ISH with riboprobes specific for ngn1 was performed on dechorionated stage 4 hpf zebrafish embryos. Anterior is to the left, dorsal to the top. Magnifications of the developing head (box) are shown. Arrows indicate larger ngn1 clusters or stronger ngn1 staining. t, telencephalon; p, protectum; h, hindbrain; d, diencephalon; tg, tegmentum; vrc, ventral rostral cluster.
(§2) We wanted to test whether the results obtained with the NotchΔE-EGFP construct are relevant for endogenous Notch signaling. Therefore we made use of C2C12 cells, a well established model for muscle development that expresses endogenous Notch^21,22. After stimulating endogenous Notch signaling by transfecting the Notch ligand Delta, Notch activity was measured by a luciferase assay using a Notch reporter^15 in the presence or absence of compounds (FIG. 4a). […] Next, we tested whether selected compounds would affect Notch signaling in vivo. […] Compounds were added to dechorionated stage 4 hpf zebrafish embryos and the effects were analyzed after 24 h by morphological inspection of somite formation. Phenotypes were ranked to four categories, normal somites, mild somite defects, strong somite defects and developmental delay. […] As an additional parameter we decided to analyze Notch-dependent genes involved in neurogenesis. Primary neurogenesis in zebrafish involves the selection of neuroblasts (repressed by Notch) from proneural clusters (Notch expressing cells), a process regulated in a negative manner by Notch-dependent lateral inhibition^25. Accordingly, neuroblast cells that express the neuronal specification factor neurogenin (ngn1^26) became more abundant when Notch signaling was impaired, for instance upon DAPT treatment^23,27. qPCR analyses on mRNA extracted from equivalent sets of embryos was performed for ngn1 expression (FIG. 4b). […] To confirm the data obtained by qPCR, whole-mount in-situ hybridizations (ISH) using an ngn1 specific riboprobe were performed (FIG. 4c, FIG. 11c). […] Taken together, FLI-06, -14, -15, -19 and -20 inhibited endogenous Notch signaling in vitro and in vivo, corroborating the NotchΔE-EGFP reporter data.
Embryos were obtained from natural spawning of wild-type TüAB strain adults, raised and staged according to supp. Ref 14. DAPT and compounds were applied at 50 iM in E3 embryo medium to zebrafish embryos with chorions torn but not completely removed from sphere stage until the stage of analysis, according to ref 23. Control embryos were mock treated with the same concentration of DMSO dissolved in E3 embryo medium. […]
Background: Real-time PCR tracks product formation cycle by cycle.

The test system of assay [4] is γ-secretase. The experiment in a line: In vitro γ-secretase assay with isolated membranes. In kind it is biochemical. As to conditions: 37° C. As to the method:
(§3) FIG. 3: Effect of compounds on NotchΔE-EGFP, APP and Klotho trafficking and processing. a) HEK293 stably expressing APPswe or Klotho (KI) were incubated with DAPT or compounds (10 μM) for 16 h. Media were collected, cells lysed and both assayed by Western blotting using indicated antibodies. m, mature; im, immature; s, shedded ectodomain; CTF, C-terminal fragment. b) Membranes from HeLa-NotchΔE-EGFP and APPswe cells were isolated and subjected to a γ-secretase in vitro assay in the presence of DAPT or compounds as indicated. NICD and AICD were detected by Western Blotting using antibodies against the C-terminus of APP (top) or antibodies specific for NICD (bottom). c) Quantitation from 5 independent experiments.
To test whether FLI-06 affected other membrane proteins, Klotho, a type I protein processed like APP and Notch^20, was analyzed. […] To analyze γ-secretase activity, in vitro assays using isolated membranes were performed (FIG. 3b, c). Production of NICD-EGFP and AICD (APP intracellular domain) were assayed. Both were produced in vitro at 37° C. but not at 4° C., and their production was inhibited by DAPT.
For assaying AICD formation, membranes of HEK293 cells stably expressing APP with the Swedish mutation were isolated and incubated for 4 h at 37° C. according to Sastre et al.^52. For assaying NICD formation, membranes from HeLa NotchΔE-EGFP cells were mixed with membranes from HeLa NotchΔE-EGFP cells that were pre-treated with 10 μM DAPT overnight to enrich substrate. After incubation samples were loaded onto either 8% SDS-PA gels (NICD) or 10-20% Tris-Tricine gels (AICD), blotted and probed with cleaved-Notch antibody or antibody 6687 against APP C-terminus^53. Chemoluminescence was quantified on a LAS-4000 (Fuji) with MultiGauge software.

The test system of assay [5] is NotchΔE-EGFP. Description: Fluorescence microscopy of reporter localization in HeLa NotchΔE-EGFP cells. Type of assay: cell-based. As to conditions: 10 μM compound, 24 h. As to the method:
FIG. 10: Phenotypes of Notch inhibitors are fully reversible. HeLa NotchΔE-EGFP cells plated in LabTek coverglass were incubated for 18 h with 10 iM of indicated compounds, washed and incubated for indicated times in cell culture medium. Cells were imaged by live-microscopy. […] Scalebar, 10 im.
For a detailed analysis of subcelluar distribution of NotchΔE/NICD the resolution of the HCS images was not sufficient. Therefore, the reporter cell line was plated on coverslips and incubated with 10 μM of individual compounds from the final hit list. After 24 h the localization of NotchΔE-EGFP/NICD-EGFP was determined by fluorescence microscopy. […] (FIG. 8).
Immunofluorescence stainings were made using standard procedures^55. Imaging was performed on a Zeiss Axiovert200 or an Axio Imager, using 63× 1.4NA objectives and Zeiss Axiovision software. For live-imaging cells were plated on Lab-Tek chambered coverglass (Thermo-Fisher). Images were assembled and processed using Adobe Photoshop. For displaying weakly stained ER-tubules/sheets non-linear changes in gamma-settings were used.

In assay [6] the test system is endogenous Notch signaling. Description: Luciferase Notch reporter assay in C2C12 cells transfected with Delta. Type of assay: cell-based. As to conditions: 10 μM, 16 h. The method, then:
as §1, §2
Endogenous Notch signaling in C2C12 was determined by a luciferase assay using a 12xCSL-luciferase reporter and transfected Delta as described before^15.

For assay [7], the system named is APP. Description: APP processing in HEK293 cells stably expressing APPswe. In kind it is cell-based. As to conditions: 10 μM, 16 h. The method, then:
as §3
To test if the compounds that affected NotchΔE-EGFP processing also affected APP processing, HEK293 cells were used that stably expressed APPswe, a mutated APP that yields robust amounts of Aβ^18. […] All other compounds had no effect on APPCTF or Aβ.
APP, APPs, APPCTF and Aβ detection was as described before^54 using antibodies 22C11 for APP and APPs, 6687 for APPCTF and 3552 and 2D8 for Aβ. Klotho was detected as described in Bloch et al.^20. Chemoluminescence was quantified on a LAS-4000 (Fuji) with MultiGauge software.

For assay [8], the system named is NotchΔE-EGFP. Description: cells. Type of assay: cell-based. The text has this:
To identify novel regulatory factors involved in Notch trafficking/processing an image-based high content screen was set up. […] NotchΔE-EGFP is a direct substrate for γ-secretase at the PM, and under physiological conditions is proteolytically processed to NICD-EGFP that translocates into the nucleus (for scheme see FIG. 1b), resulting in a strong nuclear EGFP-staining in steady state^15 (FIG. 1d). […] Importantly, changes in subcellular localization of the reporter are amenable to quantitation by automated microscopy^15. Accordingly, reporter fluorescence was determined in the nucleus (nuc) and in a ring around the nucleus (enuc), and the ratio enuc/nuc was evaluated (schematized in FIG. 1c). Thereafter, the assay design was functionally validated. […] The assay also reliably detected trafficking defects in the secretory pathway. […] Taken together, the assay was validated for reliably detecting concentration and time dependent changes in trafficking and processing of the Notch reporter.
Cells were seeded in 96-well plates at a density of 5000 cells/well in 100 μl medium. The next day, 100 μl medium containing the respective test compounds was added. Cells were incubated for 16 h, fixed and processed for automated microscopy. For the putative gamma-secretase inhibitors the enuc intensity was divided by the DAPT control and for the trafficking inhibitors normalized percentage inhibition against DAPT/DMSO controls of log 2 transformed nuc/enuc ratios were calculated. Relative activity values were read into “R” (http://www.r-project.org/) and EC50 estimates were calculated using four-parameter log-logistic fit with the package “drc”^51.
Images were acquired on an ArrayScan VTi automated microscope (ThermoFisher) and numerical data were extracted with the Compartmental Analysis BioApplication of the bundled software suite. Compound screening raw data were collected at the FMP and data transformation was performed according to standard procedures (ref 17 and supp. Refs 6-7).

Assay [9] relates to COPII vesicles. The experiment in a line: In vitro COPII budding assay with permeabilized cells. In kind it is biochemical. Particulars: no FLI-06 pretreatment of cells.

Turning to `CCCCCOC(=O)C1=C(C)NC2=C(C(=O)CC(C)(C)C2)C1c1ccc([N+](=O)[O-])cc1` (centres unmarked) [FLI-27], the ER tubule-to-sheets phenotype entry in assay [1] is given as “elicited the tubule-to-sheets phenotype”.
Still for that read-out and setting: with `CC1=C(C(=O)OC2CCCCC2)C(c2ccccc2)C2=C(CC(C)(C)CC2=O)N1` (centres unmarked) [compound 5] the entry was “elicited the tubule-to-sheets phenotype”.
On to `COc1ccc(C(=O)O)cc1Nc1nc2ccccc2nc1NS(=O)(=O)c1ccc(Cl)cc1` [FLI-16], for which the NotchΔE-EGFP processing entry in [2] is “no influence on NotchΔE-EGFP processing”. Further, the “ngn1 positive cell clusters along the spinal cord (ISH)” value in assay [3] (compared to DMSO-treated control embryos) was “reduced”. Besides, the “ngn1 mRNA levels (qPCR)” value in [3] (relative to DMSO controls) was “did not induce significant changes”. Besides, in [4], the “NICD-EGFP and AICD production in isolated membranes” value was “did not affect in vitro γ-secretase activity”. The “localization of NotchΔE-EGFP/NICD-EGFP” value in assay [5] was “did not alter the reporter localization”. In addition, the “inhibition of endogenous Notch signaling” value in assay [6] is “strongly”. For the same compound, the “APPs (shedded ectodomain) secretion” value in assay [7] was “reduced APPs secretion”.
In the case of `CC1=C(C(=O)OC2CCCCC2)C(c2ccccc2)C2=C(CC(C)(C)CC2=O)N1` (centres unmarked) [FLI-25], in assay [8] (SAR and prior-art comparison, FIG. 5a/5b), the “activity in NotchΔE-EGFP cells (enuc/nuc ratios)” value is “inactive”. Also, the “COPII budding reaction, compound added directly to the assay” value in [9] is “neither 10 nor 100 μM of FLI-25 had an effect”.
For the compound `O=S(=O)(NCCNC/C=C/c1ccc(Br)cc1)c1cccc2cnccc12` [H89, reference compound], in assay [9], the “COPII budding reaction, compound added directly to the assay” value was “completely blocked formation of COPII vesicles”.
In the case of `CC1=C(C(=O)OC2CCCCCC2)C(c2ccc([N+](=O)[O-])cc2)C2=C(CC(C)(C)CC2=O)N1` (centres unmarked) [FLI-28], in assay [8] (enuc/nuc ratios in NotchΔE-EGFP cells), the “activity relative to compound 1 (FLI-06)” value is “twice as active as compound 1”. In assay [1], the ER tubule-to-sheets phenotype entry is given as “elicited the tubule-to-sheets phenotype”.
